Assay: gradient 5% acetonitrile 3 min, to 50% in 2 min, to 85% in 15 min, held 3 min, 100 µL/min
Settings: column: Zorbax Extend-C18 2.1 x 50 mm; eluents: water / acetonitrile, 0.1% formic acid
How it was run: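 Retention times of pure standards were taken from adduct peaks that were selected by computer and manually inspected. Over 3 months, mixtures of ~100 molecules were run by HPLC–quadrupole time-of-flight mass spectrometry in positive and negative ionization mode. The Zorbax Extend-C18 column (2.1 × 50 mm, 1.8 μm) ran at 100 μL/min in water and acetonitrile, each containing 0.1% formic acid, with 40 μL dead volume and 900 μL dwell volume.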

| Structure (SMILES) | RP-LC retention time |
| --- | --- |
| Cn1cc(C(=O)N2CCCC(c3nnc4n3CCN(C3CCCC3)C4)C2)cn1 (configuration not stated) | 553 s |
| O=C(Cn1c(CN2CCCCCC2)nc2ccccc21)N1CCCCC1 | 662 s |
| c1ccc(-c2nnc(-c3ccccc3)nn2)cc1 | 1220 s |
| CC(C)CN1C(=O)c2cccn2CC1C(=O)NCCCN1CCOCC1 (configuration not stated) | 577 s |
| COc1ccc(NS(=O)(=O)c2cc(-c3cc(C(F)(F)F)on3)sc2C)cc1OC | 1020 s |
| O=C(Cn1ccc2ccc(N3CCCCCC3)nc21)N1CCC(N2CCCCC2)CC1 | 709 s |
| Clc1nc(Oc2ccccc2)nc(-c2cn(-c3ccccc3)c3ccccc23)n1 | 732 s |
| CCC(=O)N1CCc2c(C(=O)N3CCN(c4ccccc4Cl)CC3)cccc21 | 960 s |
| O=C(CSc1nnc(-c2ccco2)o1)N1CCCc2ccccc21 | 887 s |
| COc1ccc(Cl)cc1S(=O)(=O)N1C[C@@H]2C[C@H]1C[C@@H]2NC(=O)c1ccccc1 | 873 s |
| Cc1cc(C)n(-c2ccnc(N3CCC(C(=O)N4CCN(c5ccccn5)CC4)CC3)n2)n1 | 629 s |
| Cc1sc(NC(=O)C(C)(C)C)nc1-c1ccc2c(c1)NC(=O)CO2 | 830 s |
| CCOc1ccccc1-c1noc(Cn2c(=O)n(-c3cccc(F)c3)c(=O)c3sccc32)n1 | 967 s |
| Cc1cccc(-n2c(N3CCCC(C(=O)Nc4ccc(Cl)cc4)C3)nc3ccsc3c2=O)c1 (configuration not stated) | 1080 s |
| O=C(NC1CCCC1)c1nnc(-c2ccc(S(=O)(=O)N3CCOCC3)cc2)o1 | 804 s |
| Cc1cc(C)cc(-c2nc(-c3cccc(-c4ccn[nH]4)c3)no2)c1 | 999 s |
| CNC(=O)C1CCCN(c2nc3ncn(CC(=O)Nc4ccccc4OC)c(=O)c3s2)C1 (configuration not stated) | 649 s |
| COc1ccc(NC(=O)C2CCCN(c3ncnc4c3oc3ccccc34)C2)cc1 (configuration not stated) | 747 s |
| Cc1oc(-c2[nH]ncc2C(=O)N(C)C)cc1S(=O)(=O)N1CCN(CC(C)C)CC1 | 580 s |
| Cc1ccc(-c2cc3n(n2)CCCN(C(=O)C2CCOC2)C3)cc1 (configuration not stated) | 712 s |

| Structure (SMILES) | RP-LC retention time |
| --- | --- |
| Cc1cc2c(cc1S(=O)(=O)N1CCCC1C(=O)N1CCc3ccccc3C1)OCC(=O)N2 (configuration not stated) | 748 s |
| O=C(c1cc(-c2cccnc2)n[nH]1)N1CCN(C(=O)c2cccc3[nH]ccc23)CC1 | 598 s |
| COc1cccc(-c2ccc3nc(N4CCC(C(=O)N5CCCC5)CC4)sc3n2)c1 | 912 s |
| C=CCN1C(=O)COc2ccc(-c3csc(NC(=O)C4CC4)n3)cc21 | 842 s |
| CCS(=O)(=O)N1C[C@@H](COc2ccncc2)[C@H](c2ccccn2)C1 | 512 s |
| Cc1ccc(CNS(=O)(=O)c2cc3c(s2)CCN(C(=O)C2CCC2)C3)cc1 | 943 s |
| CS(=O)(=O)c1ccc(-c2cnc(N)c(C(=O)Nc3ccccc3)n2)cc1 | 937 s |
| CC1CC(C)OP(=O)(OCCC#N)O1 (configuration not stated) | 650 s |
| CCc1nc2ccccc2c(=O)n1Cc1noc(C2CC(=O)N(c3ccccc3)C2)n1 (configuration not stated) | 823 s |
| O=C(c1nnc(-c2csc(S(=O)(=O)N3CCN(c4ncccn4)CC3)c2)o1)N1CCCCC1 | 881 s |
| Cc1oc(-c2[nH]ncc2C(=O)N(C)C)cc1S(=O)(=O)NC1CC1 | 614 s |
| CC1CCC(NC(=O)c2sc3ncccc3c2-n2cccc2)CC1 (configuration not stated) | 1200 s |
| CC1CCN(c2nc(C(=O)N3CCN(c4ccccc4)CC3)nc3c2cnn3C)CC1 | 956 s |
| COc1ccc(CCC(=O)N2CCn3c(C)nnc3C2)cc1 | 569 s |
| CS(=O)(=O)N1CCCN(C(=O)c2ccccc2)CC1 | 638 s |
| Cc1cccc(-c2noc(Cn3c(=O)n(Cc4cccc(Cl)c4)c(=O)c4sccc43)n2)c1 | 1230 s |
| CCC(=O)N1CCc2c(C(=O)N3CCN(c4ccccn4)CC3)cccc21 | 589 s |
| COc1ccc(OC)c(-c2csc(-c3nnn(-c4ccccc4)c3N)n2)c1 | 1080 s |
| CCCCn1cc(S(=O)(=O)NC2CCCCC2)c2cccnc21 | 1010 s |
| Cc1ccc(N2C(=O)CN(S(C)(=O)=O)CC2(C)C(=O)NC2CCCCCC2)cc1Cl (configuration not stated) | 946 s |

The next lines start with the values.

| RP-LC retention time | Structure (SMILES) |
| --- | --- |
| 1090 s | COc1ccc(-c2nc(C3CC(=O)N(c4ccc(C)cc4)C3)no2)c(C)c1 (configuration not stated) |
| 1040 s | O=C(Nc1ccc2c(c1)OCO2)C1CCCN(c2ncc(-c3ccccc3)cn2)C1 (configuration not stated) |
| 934 s | O=C(CSc1ncnc2c1oc1ccccc12)Nc1ccc(F)cc1F |
| 715 s | COc1ccc(NC(=O)Nc2cccc(-c3ccc(N4CCOCC4)nn3)c2)cc1Cl |
| 694 s | CC(C)NC(=O)c1ccc(-c2nc3cc(NS(=O)(=O)CCc4ccccc4)ccc3n2C)cc1 |
| 1010 s | Cc1c(C(=O)NCC(C)C)cnn1-c1cc(-c2nc(C(C)C)no2)ccn1 |
| 715 s | COC(=O)c1c(C)[nH]c(C(=O)N2CCC(CC(=O)NCc3cccc(OC)c3)CC2)c1C |
| 824 s | Cc1ccsc1C(=O)NCCn1c(=O)n(Cc2ccc(F)cc2)c2cccnc21 |
| 815 s | CCc1ccc(CNC(=O)Cc2c(C(=O)O)c(C)cn2C)cc1 |
| 630 s | COC(=O)c1cnc2nc(C)ccc2c1Nc1ccc(OC)c(OC)c1 |
| 636 s | Cc1ccc2nc(CNC(=O)C3CCN(S(=O)(=O)c4ccc5c(c4)sc(=O)n5C)CC3)[nH]c2c1 |
| 690 s | Cc1ccc(C)c(C(=O)N2CCC(c3cc4n(n3)CCCN(C)C4=O)CC2)c1 |
| 659 s | O=C(Cn1cnc2nc(N3CCCC(C(=O)NC4CC4)C3)sc2c1=O)Nc1ccc2c(c1)OCO2 (configuration not stated) |
| 948 s | Cc1ccc(-c2cc3n(n2)CCCN(C(=O)c2ccc(C)s2)C3)cc1 |
| 601 s | Cc1cc(C)cc(Nc2nc(C)cc3nn(CC(=O)N4CCOCC4)c(=O)n23)c1 |
| 690 s | CCCNC(=O)C1CCCN(c2ccc(SCC(=O)Nc3ccccc3C(F)(F)F)nn2)C1 (configuration not stated) |
| 835 s | CCc1cccc(Nc2c(-c3nc(C)no3)cnc3nc(C)ccc23)c1 |
| 658 s | COC(=O)c1ncn2c1C(=O)N(C1CC1)C(C)(C(=O)NCc1cccc(C)c1)C2 (configuration not stated) |
| 874 s | COc1cc(NC(=O)N(C)CCc2noc(COc3ccc(F)cc3)n2)cc(OC)c1 |
| 752 s | O=C(NC1CCN(c2cc(-c3ccccc3)[nH]n2)C1)c1ccc(Br)cc1 (configuration not stated) |
| 806 s | COc1ccc(NS(=O)(=O)c2ccc(-c3c(C)noc3C)cc2)cc1OC |
| 775 s | CCN(CC)C(=O)c1cc2c(s1)CCC(C(=O)Nc1ccc3c(c1)OCCO3)C2 (configuration not stated) |
| 865 s | COc1cccc(NC(=O)Cn2nc3c(Oc4ccccc4Cl)nccn3c2=O)c1 |
| 673 s | Cc1ccc(C2c3[nH]c4ccccc4c3CCN2C(=O)c2ccnn2C)cc1 (configuration not stated) |

| RP-LC retention time | Structure (SMILES) |
| --- | --- |
| 682 s | COc1ccc(S(=O)(=O)Nc2cc(-c3cn4ccccc4n3)ccc2C)cc1C |
| 753 s | CN(C)C(=O)c1ccc2c(c1)N(CC(=O)Nc1ccc(Cl)cc1)C(=O)CS2 |
| 970 s | Cc1nc(-c2cn(C(C)C)c3ncccc23)sc1C(=O)NCc1cccs1 |
| 891 s | Cc1ccc(C)c(NC(=O)NC2CCN(c3ccc(F)c(C)c3)C2=O)c1 (configuration not stated) |
| 938 s | CCCS(=O)(=O)c1nc2ccc(NS(=O)(=O)Cc3cc(F)cc(F)c3)cc2s1 |
| 1230 s | CCCCN(CC)S(=O)(=O)c1ccc(C(=O)Nc2nc3c(s2)Cc2ccccc2-3)cc1 |
| 654 s | CC(NC(=O)CCc1ccccc1)C(=O)Nc1nc2ccccc2[nH]1 (configuration not stated) |
| 648 s | C[C@@H](NC(=O)c1ccc(F)c(F)c1)C(=O)NCc1cscn1 |
| 767 s | Cc1ccc(CNC(=O)c2ccc3c(c2)nc2n3CCN(C(C)C)C2=O)cc1C |
| 683 s | O=C(Nc1cnc(N2CCN(CCOc3ccc(Cl)cc3)CC2)c(C(=O)O)c1)c1cccs1 |
| 982 s | COc1ccc2c(CCNC(=O)c3ccc(C(C)(C)C)cc3)c[nH]c2c1 |
| 791 s | CCc1ccc(Nc2nc(C(=O)NC3CC3)nc3ccccc23)cc1 |
| 998 s | CCSc1nc2ccc(NS(=O)(=O)c3cccc(F)c3)cc2s1 |
| 1050 s | CCc1nc2cc(-c3noc(Cc4ccccc4F)n3)ccc2o1 |
| 609 s | COC(=O)C1=C(N)Oc2cc(C)n(CCN(C)C)c(=O)c2C1c1cccc(OC)c1 (configuration not stated) |
| 620 s | COc1ccc(NC(=O)N2CCN(c3cc(-c4ccc(OC)c(OC)c4)ncn3)CC2)cc1OC |
| 835 s | CCCNS(=O)(=O)c1ccc(-c2c(C)noc2C)cc1 |
| 656 s | Cc1ccc(-c2nc3ccccc3[nH]2)cc1NC(=O)CC(C)C |
| 886 s | COc1ccccc1NC(=O)Cn1c(C(F)(F)F)nc2cc3c(cc21)OCCO3 |
| 1020 s | Cc1cc(C)cc(NC(=O)c2cc(C)n3nccc3n2)c1 |
| 641 s | COc1cc(NC(=O)Cn2nc(C(=O)N3CCCC3)c3ccccc32)cc(OC)c1 |
| 843 s | O=C(Cn1nc2c(cc1=O)CCCCC2)NCCc1nc(-c2ccccc2)cs1 |
| 785 s | CCN(CC)C(=O)c1ccc2c(c1)nnn2CCNC(=O)Nc1ccc(Br)c(C)c1 |

Source: the METLIN SMRT retention time set (Domingo-Almenara et al. 2019)
